Where a SMILES comes first, the peptide text is derived from it. [ ]: non-standard residue; d: D form. Ac6c = NC1(C(=O)O)CCCCC1; Api = NC1(C(=O)O)CCNCC1; Aib = CC(C)(N)C(=O)O
Tests used:
[1] = test system: B. abortus infected BALB/c mice; settings: mouse, in vivo
in vitro = settings: BALB/c, mouse, normal (non-infected) primary murine peritoneal macrophages, Normal Macrophage Survival Rate
[2] = Circular dichroism (CD) in SDS micelles, percent helicity; type: physicochemical
Solubility in water = settings: without any organic modifier present
trypsin = trypsin (Sus scrofa, UniProt P00761); test: Resistance to trypsin, E. coli MIC assay after trypsin incubation; settings: trypsin 20 min at 37° C., then MIC assay with E. coli
Sequence of trypsin (P00761 9-231): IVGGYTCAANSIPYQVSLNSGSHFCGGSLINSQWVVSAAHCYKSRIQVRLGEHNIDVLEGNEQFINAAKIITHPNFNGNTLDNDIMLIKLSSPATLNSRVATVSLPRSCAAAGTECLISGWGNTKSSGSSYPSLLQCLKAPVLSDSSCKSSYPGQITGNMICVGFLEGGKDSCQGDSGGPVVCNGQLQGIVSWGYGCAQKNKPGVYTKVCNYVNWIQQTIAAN

B. abortus strain 2308 = test system: B. abortus strain 2308; parameters: species or system BALB/c mice; settings: mouse, in vivo; for % Bacterial Reduction: iv
[3] = test system: Staphylococcus aureus, ATCC 25723; settings: for Peptide minimum inhibitory concentration, S. aureus: MIC after 4 h, median of 3-7 tests, corrected for actual peptide concentration
[4] = test system: Escherichia coli, ATCC 25922; settings: for Peptide minimum inhibitory concentration, E. coli: MIC after 4 h, median of 3-7 tests, corrected for actual peptide concentration
[5] = test system: Normal murine macrophages; settings: 10 μM
[6] = test system: Murine macrophages infected with virulent B. abortus, strain 2308; type: cell-based, BALB/c mice

Row | Compound | Stress or death of infected mice after treatment [1] | viability at 1 h, 0.1 µM (in vitro) | viability at 1 h, 1 µM (in vitro) | viability at 1 h, 10 µM (in vitro) | viability at 1 h, 50 µM (in vitro) | Effect of incubation with trypsin on antibacterial activity (trypsin) | Peptide minimum inhibitory concentration, S. aureus [3] | Peptide minimum inhibitory concentration, E. coli [4] | other results
1 | CC(=O)NC(C)(C)C(=O)NC(C)(C)C(=O)NC1(C(=O)N[C@@H](CCCCN)C(=O)NC(C)(C)C(=O)NC(C)(C)C(=O)NC2(C(=O)N[C@@H](CCCCN)C(=O)NC(C)(C)C(=O)NC(C)(C)C(N)=O)CCNCC2)CCNCC1 [Pi-10-ac, Ac—AibAibApiLysAibAibApiLysAibAib—NH2] (Ac-[Aib][Aib][Api]K[Aib][Aib][Api]K[Aib][Aib]-NH2) | died immediately after treatment | 92% | 89% | 88% | 49% |  |  |  | 
2 | CC(C)(NC(=O)[C@H](CCCCN)NC(=O)C(C)(C)NC(=O)C(C)(C)NC(=O)C1(N)CCNCC1)C(=O)NC(C)(C)C(=O)N[C@@H](CCCCN)C(=O)NC(C)(C)C(=O)NC(C)(C)C(=O)NC1(C(N)=O)CCNCC1 [Ipi-10, H—ApiAibAibLysAibAibLysAibAibApi—NH2] (H-[Api][Aib][Aib]K[Aib][Aib]K[Aib][Aib][Api]-NH2) | did not die, but showed physiological signs of stress |  |  |  |  | did not decrease antibacterial activity |  |  | 222/206 intensity ratio (CD) ([2]; in the presence of SDS micelles): 0.32; Solubility in water (Solubility in water): readily soluble in water; % Bacterial Reduction (B. abortus strain 2308): 55%
3 | NCCCC[C@H](NC(=O)[C@H](CCCCN)NC(=O)C1(NC(=O)C2(NC(=O)[C@H](CCCCN)NC(=O)C3(NC(=O)C4(NC(=O)[C@H](CCCCN)NC(=O)[C@@H](N)CCCCN)CCCCC4)CCCCC3)CCCCC2)CCCCC1)C(=O)NC1(C(=O)NC2(C(N)=O)CCCCC2)CCCCC1 [Ch-11, H—LysLysChChLysChChLysLysChCh—NH2] (H-KK[Ac6c][Ac6c]K[Ac6c][Ac6c]KK[Ac6c][Ac6c]-NH2) |  |  |  |  |  |  | 2.6 µM | 5.2 µM | 
4 | NCCCC[C@H](NC(=O)[C@H](CCCCN)NC(=O)C1(NC(=O)C2(NC(=O)[C@H](CCCCN)NC(=O)C3(NC(=O)C4(NC(=O)[C@H](CCCCN)NC(=O)[C@@H](N)CCCCN)CCCCC4)CCCCC3)CCCCC2)CCCCC1)C(=O)NC1(C(N)=O)CCCCC1 [Ch-10, H—LysLysChChLysChChLysLysCh—NH2] (H-KK[Ac6c][Ac6c]K[Ac6c][Ac6c]KK[Ac6c]-NH2) | died immediately after treatment |  |  |  |  | did not decrease antibacterial activity | 2.8 µM | 5.7 µM | Survival of infected mice after treatment [1]: lived
5 | H-KAAKKAAKAAKKAA-NH2 [Al-14, H—LysAlaAlaLysLysAlaAlaLysAlaAlaLysLysAlaAla—NH2, reference compound] |  |  |  |  |  |  | >178 µM | >178 µM | % Bacterial Reduction (B. abortus strain 2308): −6%
6 | NCCCC[C@H](NC(=O)[C@H](CCCCN)NC(=O)C1(NC(=O)C2(NC(=O)[C@H](CCCCN)NC(=O)C3(NC(=O)C4(NC(=O)[C@H](CCCCN)NC(=O)[C@H](CCCCN)NC(=O)C5(NC(=O)C6(NC(=O)[C@@H](N)CCCCN)CCCCC6)CCCCC5)CCCCC4)CCCCC3)CCCCC2)CCCCC1)C(=O)NC1(C(N)=O)CCCCC1 [Ch-13, H—LysChChLysLysChChLysChChLysLysCh—NH2] (H-K[Ac6c][Ac6c]KK[Ac6c][Ac6c]K[Ac6c][Ac6c]KK[Ac6c]-NH2) | died immediately after treatment |  |  |  |  | did not decrease antibacterial activity | 2.2 µM | 6.5 µM | Survival of infected mice after treatment [1]: lived
7 | CC(C)(NC(=O)C(C)(C)NC(=O)[C@H](CCCCN)NC(=O)[C@H](CCCCN)NC(=O)C(C)(C)NC(=O)C(C)(C)NC(=O)[C@H](CCCCN)NC(=O)C(C)(C)NC(=O)C(C)(C)NC(=O)[C@H](CCCCN)NC(=O)[C@H](CCCCN)NC(=O)C(C)(C)NC(=O)C(C)(C)NC(=O)[C@@H](N)CCCCN)C(N)=O [Ai-14, H—LysAibAibLysLysAibAibLysAibAibLysLysAibAib—NH2] (H-K[Aib][Aib]KK[Aib][Aib]K[Aib][Aib]KK[Aib][Aib]-NH2) |  | 91% | 88% | 88% | 57% | did not decrease antibacterial activity | 11 µM | 5.5 µM | 
8 | H-GIGKFLHSAKKFGKAFVGEIMNS-OH [magainin 2, reference compound] |  |  |  |  |  | destroyed antibacterial activity |  |  | 
9 | CC(=O)N[C@@H](CCCCN)C(=O)N[C@@H](CCCCN)C(=O)NC(C)(C)C(=O)NC(C)(C)C(=O)N[C@@H](CCCCN)C(=O)NC(C)(C)C(=O)NC(C)(C)C(=O)N[C@@H](CCCCN)C(=O)N[C@@H](CCCCN)C(=O)NC(C)(C)C(=O)NC(C)(C)C(N)=O [Ai-11-ac, Ac—LysLysAibAibLysAibAibLysLysAibAib—NH2] (Ac-KK[Aib][Aib]K[Aib][Aib]KK[Aib][Aib]-NH2) |  | 92% | 82% | 86% | 58.5% | did not decrease antibacterial activity | 212 µM | 6.6 µM | Effect of peptide treatment on normal macrophages (in words) [5]: small effect
10 | CC(C)(N)C(=O)NC(C)(C)C(=O)NC1(C(=O)N[C@@H](CCCCN)C(=O)NC(C)(C)C(=O)NC(C)(C)C(=O)NC2(C(=O)N[C@@H](CCCCN)C(=O)NC(C)(C)C(=O)NC(C)(C)C(N)=O)CCNCC2)CCNCC1 [Pi-10, H—AibAibApiLysAibAibApiLysAibAib—NH2] (H-[Aib][Aib][Api]K[Aib][Aib][Api]K[Aib][Aib]-NH2) |  | 95% | 89% | 90% | 68% | did not decrease antibacterial activity |  |  | Antibacterial activity against S. aureus (in words) [3]: moderate activity; % Helicity (% α helix) ([2]; CD, 25 mM SDS micelles, 100-200 μM peptide): 43%; Solubility in water (Solubility in water): readily soluble in water; Antibacterial activity against E. coli (in words) [4]: good antibacterial activity; Infected Macrophage Survival Rate [6]: 55.0 ± 1.00; Reduction of bacterial load compared to controls (in words) (B. abortus strain 2308): significantly reduced bacterial load; % Bacterial Reduction (B. abortus strain 2308): 90%
11 | CC(=O)NC1(C(=O)NC(C)(C)C(=O)NC(C)(C)C(=O)N[C@@H](CCCCN)C(=O)NC(C)(C)C(=O)NC(C)(C)C(=O)N[C@@H](CCCCN)C(=O)NC(C)(C)C(=O)NC(C)(C)C(=O)NC2(C(N)=O)CCNCC2)CCNCC1 [Ipi-10-ac, Ac—ApiAibAibLysAibAibLysAibAibApi—NH2] (Ac-[Api][Aib][Aib]K[Aib][Aib]K[Aib][Aib][Api]-NH2) | did not die, but showed physiological signs of stress |  |  |  |  |  |  |  | 
12 | H-KWKVFKKIEKMGRNIRNGIVKAGPAIAVLGEAKAL-NH2 [cecropin B, reference compound] |  |  |  |  |  | destroyed antibacterial activity |  |  | 
13 | CC(C)(NC(=O)C(C)(C)NC(=O)[C@H](CCCCN)NC(=O)[C@H](CCCCN)NC(=O)C(C)(C)NC(=O)C(C)(C)NC(=O)[C@H](CCCCN)NC(=O)C(C)(C)NC(=O)C(C)(C)NC(=O)[C@H](CCCCN)NC(=O)[C@@H](N)CCCCN)C(N)=O [Ai-11, H—LysLysAibAibLysAibAibLysLysAibAib—NH2] (H-KK[Aib][Aib]K[Aib][Aib]KK[Aib][Aib]-NH2) |  | 88% | 89% | 81% | 56.6% | did not decrease antibacterial activity | >220 µM | 55 µM | Effect of peptide treatment on normal macrophages (in words) [5]: small effect

Reference: patent publication US6566334B1, “Short amphipathic peptides with activity against bacteria and intracellular pathogens” (priority 1997, dated 2003)
